In experiment [1] the test system is Rattus norvegicus. Put plainly: Ex-vivo inhibition of DPP4 in po dosed Wistar rat plasma up to 24 hrs by fluorometry. The class given is functional, organism-based.
The species entered for experiment [2] is Rattus norvegicus. Put plainly: animal or person. Particulars: Wistar, Plasma, po, 24 h, read-out: INH.

For the molecule `O=C([C@@H]1C[C@H](N2CCN(c3cc(C(F)(F)F)nc4ccccc34)CC2)CN1)N1CCSC1`, in experiment [1], the inhibition entry is “Dose-dependent effect”. The inhibition in vivo at 3 µmol/kg in experiment [2] was above 40%.

(Values after ChEMBL document CHEMBL2057088 (Bioorg Med Chem, 2012).)
